Reference: patent publication US7550604B2, “Pyrroloterpenes and use of the same as antimicrobial and anticancer agents” (Nereus Pharmaceuticals, Inc., priority 2004, dated 2009)

Experiments:
Assay type in all cases: cell-based
[1] = test system: B16-F10 cells; test: Growth inhibition of murine melanoma B16-F10 cells (resazurin)
Protocol: B16-F10 (ATCC; CRL-6475) a murine melanoma cell line was maintained in complete Dulbecco's Modification of Eagle's Medium (DMEM) (DMEM supplemented with 10% (v/v) Fetal bovine serum, 2 mM glutamine, 10 mM HEPES and Penicillin/Streptomycin at 100 IU/ml and 100 μg/ml respectively). The cells were cultured in an incubator at 37° C. in 5% CO2 and 95% humidified air. For cell growth inhibition assays, B16-F10 cells were seeded at 1.25×10^3 cells/well in 90 μl complete media into Corning 3904 black-walled, clear-bottom tissue culture plates and the plates were incubated overnight to allow cells to establish and enter log phase growth. Two independent assays were performed using 200 mM or 400 mM stock solutions prepared in 100% DMSO. 10× concentrated serial dilutions of the compound of Formula (V) were prepared in appropriate culture medium. Ten μl volumes of the serial dilutions were added to the test wells in triplicate resulting in final concentrations ranging from 500 μM to 158 nM or 1 mM to 7.81 μM. The plates were returned to the incubator for 48 hours. The final concentration of DMSO was 0.25% in all samples. […] Since living cells metabolize Resazurin, the fluorescence of the reduction product of Resazurin was measured using a Fusion microplate fluorometer (Packard Bioscience) with λex =535 nm and λem=590 nm filters. […]

[2] = test system: HT-29 cells; test: Growth inhibition of human colorectal adenocarcinoma HT-29 cells (resazurin)
Protocol: HT-29 (ATCC; HTB-38) a human colorectal adenocarcinoma cell line was maintained in complete McCoy's 5A medium (McCoy's 5A medium supplemented with 10% (v/v) Fetal bovine serum, 2 mM glutamine, 10 mM HEPES, 1% (v/v) non-essential amino acids (NEAA), 1 mM sodium pyruvate and Penicillin/Streptomycin at 100 IU/ml and 100 μg/ml respectively). The cells were cultured in an incubator at 37° C. in 5% CO2 and 95% humidified air. For cell growth inhibition assays, HT-29 cells were seeded at 5×10^3 cells/well in 90 μl complete media into Corning 3904 black-walled, clear-bottom tissue culture plates and the plates were incubated overnight to allow cells to establish and enter log phase growth. Two independent assays were performed using 200 mM or 400 mM stock solutions prepared in 100% DMSO. 10× concentrated serial dilutions of the compound of Formula (V) were prepared in appropriate culture medium. Ten μl volumes of the serial dilutions were added to the test wells in triplicate resulting in final concentrations ranging from 500 μM to 158 nM or 1 mM to 7.81 μM. The plates were returned to the incubator for 48 hours. The final concentration of DMSO was 0.25% in all samples. […] Since living cells metabolize Resazurin, the fluorescence of the reduction product of Resazurin was measured using a Fusion microplate fluorometer (Packard Bioscience) with λex =535 nm and λem=[…] filters. […]

[3] = test system: Escherichia coli imp; test: Antimicrobial MIC assay (NCCLS M7-A5)
Protocol: (§1) Minimum inhibitory concentrations (MICs) were determined according to the National Committee for Clinical Laboratory Standards (NCCLS) susceptibility test guideline M7-A5 (Ferraro, M. 2001 Methods for Dilution Antimicrobial Susceptibility Tests for Bacteria that Grow Aerobically; Approved Standard (NCCLS). National Committee for Clinical Laboratory Standards (NCCLS), Villanova, which is incorporated herein by reference in its entirety).

[4] = test system: Candida albicans; test: Antimicrobial MIC assay (NCCLS M7-A5)
Protocol: as §1

[5] = test system: Bacillus cereus 14579; test: Antimicrobial MIC assay (NCCLS M7-A5)
Protocol: as §1

[6] = test system: Staphylococcus aureus - MSSA; test: Antimicrobial MIC assay (NCCLS M7-A5)
Protocol: as §1

Question: What does the source list for `CC(=C/C(=O)c1ccc[nH]1)/C=C/C(O)C1(C)CCC(C(C)(C)O)O1` (stereo not shown) [Formula (V)]?
Answer: inhibition of growth of B16-F10 tumor cells (in words) ([1]; B16-F10): able to inhibit the growth; EC50 ([1]; Mus musculus, B16-F10, 48 hours drug exposure, resazurin fluorescence, read-out: EC50 against B16-F10 cells): 260 µM; inhibition of growth of HT-29 tumor cells (in words) ([2]; HT-29): able to inhibit the growth; EC50 ([2]; Homo sapiens, HT-29, 48 hours drug exposure, resazurin fluorescence, read-out: EC50 against HT-29 cells): 286 µM; MIC [3]: 128 µg/mL; MIC [4]: > 128 µg/mL; MIC ([5]; Bacillus cereus 14579): 72 µg/mL; anti-bacterial activity versus gram positive microorganisms (in words) ([5]; gram positive: Bacillus cereus 14579): possess anti-bacterial activity; MIC ([6]; Staphylococcus aureus - MSSA): 64 µg/mL; anti-bacterial activity versus gram positive microorganisms (in words) ([6]; gram positive: Staphylococcus aureus - MSSA): possess anti-bacterial activity
